Reference: patent publication US20230265524A1, “IMMUNOGENIC RETROELEMENTS AND THEIR USE IN CANCER THERAPY” (UNIVERSITY HEALTH NETWORK, priority 2020, published 2023)

Assays:
ADAR1 = test: qPCR analysis of ADAR1 mRNA level and isoforms; format: cell-based, human; details: CRC cells transiently transfected, 100 ng/ml
Experimental: C, qPCR analysis of total ADAR1 mRNA level after treatment with 5-AZA-CdR (300 nM, for 5 days) or transfection with 100 ng ml-1 poly(I:C) over a course of 24 days. Cells were washed out at day 5 and seeded in drug-free medium. Data are mean±s.e.m.****P<0.0001, Sidak-corrected two-way ANOVA.
A, ADAR1 isoforms (p110 and p150) relative expression analysed by qPCR. LACZ denotes ADAR1WT; PIC denotes 100 ng/ml poly (I:C) for 5 days; AZA denotes 300 nM 5-AZA-CdR for 5 days). Data are mean±s.e.m. (n=3 from three independent experiments). ***P<0.001, ****P<0.0001, Tukey-corrected two-way ANOVA.
To test this hypothesis, we first determined if ADAR1 depletion affects dsRNA formation by IR-Alus in untreated patient-derived CRCs. We generated ADAR1 knock-down CRCs using two different hairpin RNAs (ADAR1^KDA/B) and confirmed depletion of both the constitutively expressed (p110) and interferon-inducible (p150) ADAR1 isoforms (FIG. 8A). […] To determine if MDA5 ligands also increase upon ADAR1 depletion, we performed the MDA5 protection assay followed by RNA-Seq, as above. […] Again, these immunogenic Alus were primarily IR-Alu pairs unidirectionally transcribed in either the sense (+/+) or antisense (−/−) direction and induced upon ADAR1 depletion (FIG. 9C-J).
Next, we tested whether epigenetic therapy can induce and activate ADAR1 editing activity.

[1] = system: interferon stimulated genes (ISG15, DDX58 and IRF7); test: interferon response / ISG expression by RNA-seq GSEA and qRT-PCR in patient-derived CRC cells; format: cell-based, human; details: transfection in wild-type and ADAR1-depleted cells, across time-points
From the text: H, Geneset Enrichment Analysis showing an enrichment of the geneset ‘Hallmark_Interferon_Alpha_Response’ in ADAR1^KD 5-AZA-treated cells compared to ADAR1^WT 5-AZA-CdR treated cells.
I, Interferon-responsive geneset enrichment score in mock-treated ADAR1^WT, 5-AZA-CdR-treated ADAR1^WT, mock-treated ADAR1^KD, and 5-AZA-CdR-treated ADAR1^KD conditions. Samples were collected 5, 14, and 24 days post-treatment.
B, Kinetics of interferon stimulated genes (ISG15, DDX58 and IRF7) relative expression in ADAR1^WT (Black) and ADAR1^KD (Gray) patient-derived colorectal cancer cells (CRCs) treated with 5-AZA-CdR analyzed by qRT-PCR. Data are mean±s.e.m. (n=3 from three independent experiments). *P<0.05, **P<0.01, ****P<0.0001, Sidak-corrected two-way ANOVA.
C, Interferon-responsive gene expression in ADAR1^WT mock-treated (MT), 5-AZA-CdR treated, ADAR1^KD NT and ADAR1^KD p(I:C) transfected samples collected 5 days, 14 days and 24 days post-treatment, measured by RNA-seq.
D, Kinetics of interferon stimulated genes (ISG15, DDX58 and IRF7) relative expression in ADAR1^WT (Black) and ADAR1^KD (Gray) patient-derived CRCs transfected with p(I:C), analyzed by qRT-PCR. Data are mean±s.e.m. **P<0.01, ****P<0.0001, Sidak-corrected two-way ANOVA.
F, Interferon stimulated genes (ISG15, DDX58 and IRF7) relative expression in CTRL (LUC) (Black) and ADAR1^p150CE (Gray) patient-derived CRCs treated with 5-AZA-CdR, analyzed by qRT-PCR. Data are mean±s.e.m. **P<0.01, ***P<0.001, Sidak-corrected two-way ANOVA.
G, IFN enrichment score in CTRL(LUC) Mock-treated, 5-AZA-CdR treated, ADAR1-p150 overexpressing NT and ADAR1-p150 overexpressing 5-AZA-CdR treated samples collected 5 days post-treatment and measured by RNA-seq.
Based on these findings, we hypothesized that ADAR1 depletion would synergize with the viral mimicry response induced by DNMTi treatment. To assess how ADAR1 depletion affects 5-AZA-CdR treated samples, we performed RNA-seq analyses in patient-derived CRC cells. […] As a molecular read-out of dsRNA pattern recognition activation, we measured MAVS aggregation in the mitochondrial fraction of cell lysates^34. […] Taken together, our findings establish that ADAR1 acts as a negative feedback loop, restricting the viral mimicry response induced by DNMTi treatment in cancer cells.

Poly(I:C)
interferon-inducible isoform of ADAR1 (p150) expression (ADAR1): acute up-regulation
activation of ISGs [1]: comparable activation of ISGs across time-points
